Results from the NIST ThermoML archive (doi:10.1016/j.fluid.2010.01.002).
± gives the expanded uncertainty stated by the source.

Tests used:
[1] = mn = molality of the nth substance listed, in mol/kg; settings: 101 kPa, Liquid, Vibrating tube method
[2] = refractive index (Na D-line) (dimensionless); settings: 101.33 kPa, Liquid, Standard Abbe refractometry
[3] = 101.33 kPa, Liquid; for viscosity: Capillary tube (Ostwald / Ubbelohde) method; for mass density: Vibrating tube method

COS(=O)(=O)[O-].Cn1cc[n+](C)c1 [1,3-dimethylimidazolium methylsulfate] + C[S+](C)[O-]
mass density ([1]; 298.15 K, m1 = 0.0129): 1095.83 ± 0.13 kg/m3
mass density ([1]; 298.15 K, m1 = 0.0148): 1095.95 ± 0.13 kg/m3
mass density ([1]; 298.15 K, m1 = 0.0289): 1096.8 ± 0.13 kg/m3
mass density ([1]; 298.15 K, m1 = 0.0374): 1097.18 ± 0.14 kg/m3
mass density ([1]; 298.15 K, m1 = 0.0433): 1097.5 ± 0.14 kg/m3
mass density ([1]; 298.15 K, m1 = 0.0517): 1097.95 ± 0.14 kg/m3
mass density ([1]; 298.15 K, m1 = 0.0632): 1098.58 ± 0.14 kg/m3
mass density ([1]; 298.15 K, m1 = 0.0897): 1100 ± 0.14 kg/m3
mass density ([1]; 298.15 K, m1 = 0.1221): 1101.67 ± 0.14 kg/m3
mass density ([1]; 298.15 K, m1 = 0.1501): 1103.05 ± 0.14 kg/m3
mass density ([1]; 298.15 K, m1 = 0.1878): 1104.92 ± 0.14 kg/m3
mass density ([1]; 298.15 K, m1 = 0.2351): 1107.24 ± 0.14 kg/m3
mass density ([1]; 298.15 K, m1 = 0.2852): 1109.64 ± 0.15 kg/m3
mass density ([1]; 298.15 K, m1 = 0.3822): 1114 ± 0.15 kg/m3
mass density ([1]; 298.15 K, m1 = 0.5216): 1120.2 ± 0.16 kg/m3
mass density ([1]; 298.15 K, m1 = 0.8153): 1132.05 ± 0.17 kg/m3
mass density ([1]; 308.15 K, m1 = 0.0129): 1085.98 ± 0.13 kg/m3
mass density ([1]; 308.15 K, m1 = 0.0148): 1086.09 ± 0.13 kg/m3
mass density ([1]; 308.15 K, m1 = 0.0289): 1086.89 ± 0.13 kg/m3
mass density ([1]; 308.15 K, m1 = 0.0374): 1087.35 ± 0.13 kg/m3
mass density ([1]; 308.15 K, m1 = 0.0433): 1087.65 ± 0.13 kg/m3
mass density ([1]; 308.15 K, m1 = 0.0517): 1088.1 ± 0.13 kg/m3
mass density ([1]; 308.15 K, m1 = 0.0632): 1088.71 ± 0.13 kg/m3
mass density ([1]; 308.15 K, m1 = 0.0897): 1090.12 ± 0.13 kg/m3
mass density ([1]; 308.15 K, m1 = 0.1221): 1091.81 ± 0.13 kg/m3
mass density ([1]; 308.15 K, m1 = 0.1501): 1093.21 ± 0.14 kg/m3
mass density ([1]; 308.15 K, m1 = 0.1878): 1095.1 ± 0.14 kg/m3
mass density ([1]; 308.15 K, m1 = 0.2351): 1097.42 ± 0.14 kg/m3
mass density ([1]; 308.15 K, m1 = 0.2852): 1099.85 ± 0.14 kg/m3
mass density ([1]; 308.15 K, m1 = 0.3822): 1104.38 ± 0.15 kg/m3
mass density ([1]; 308.15 K, m1 = 0.5216): 1110.59 ± 0.15 kg/m3
mass density ([1]; 308.15 K, m1 = 0.8153): 1122.58 ± 0.16 kg/m3
mass density ([1]; 318.15 K, m1 = 0.0129): 1075.96 ± 0.13 kg/m3
mass density ([1]; 318.15 K, m1 = 0.0148): 1076.07 ± 0.12 kg/m3
mass density ([1]; 318.15 K, m1 = 0.0289): 1076.88 ± 0.13 kg/m3
mass density ([1]; 318.15 K, m1 = 0.0374): 1077.34 ± 0.13 kg/m3
mass density ([1]; 318.15 K, m1 = 0.0433): 1077.66 ± 0.13 kg/m3
mass density ([1]; 318.15 K, m1 = 0.0517): 1078.12 ± 0.13 kg/m3
mass density ([1]; 318.15 K, m1 = 0.0632): 1078.72 ± 0.13 kg/m3
mass density ([1]; 318.15 K, m1 = 0.0897): 1080.15 ± 0.13 kg/m3
mass density ([1]; 318.15 K, m1 = 0.1221): 1081.86 ± 0.13 kg/m3
mass density ([1]; 318.15 K, m1 = 0.1501): 1083.28 ± 0.13 kg/m3
mass density ([1]; 318.15 K, m1 = 0.1878): 1085.22 ± 0.13 kg/m3
mass density ([1]; 318.15 K, m1 = 0.2351): 1087.6 ± 0.13 kg/m3
mass density ([1]; 318.15 K, m1 = 0.2852): 1090.06 ± 0.14 kg/m3
mass density ([1]; 318.15 K, m1 = 0.3822): 1094.63 ± 0.14 kg/m3
mass density ([1]; 318.15 K, m1 = 0.5216): 1100.91 ± 0.15 kg/m3
mass density ([1]; 318.15 K, m1 = 0.8153): 1113.1 ± 0.16 kg/m3
mass density ([1]; 328.15 K, m1 = 0.0129): 1065.92 ± 0.12 kg/m3
mass density ([1]; 328.15 K, m1 = 0.0148): 1066.03 ± 0.12 kg/m3
mass density ([1]; 328.15 K, m1 = 0.0289): 1066.84 ± 0.12 kg/m3
mass density ([1]; 328.15 K, m1 = 0.0374): 1067.32 ± 0.12 kg/m3
mass density ([1]; 328.15 K, m1 = 0.0433): 1067.64 ± 0.12 kg/m3
mass density ([1]; 328.15 K, m1 = 0.0517): 1068.11 ± 0.12 kg/m3
mass density ([1]; 328.15 K, m1 = 0.0632): 1068.74 ± 0.12 kg/m3
mass density ([1]; 328.15 K, m1 = 0.0897): 1070.19 ± 0.12 kg/m3
mass density ([1]; 328.15 K, m1 = 0.1221): 1071.93 ± 0.13 kg/m3
mass density ([1]; 328.15 K, m1 = 0.1501): 1073.4 ± 0.13 kg/m3
mass density ([1]; 328.15 K, m1 = 0.1878): 1075.36 ± 0.13 kg/m3
mass density ([1]; 328.15 K, m1 = 0.2351): 1077.78 ± 0.13 kg/m3
mass density ([1]; 328.15 K, m1 = 0.2852): 1080.29 ± 0.13 kg/m3
mass density ([1]; 328.15 K, m1 = 0.3822): 1084.97 ± 0.14 kg/m3
mass density ([1]; 328.15 K, m1 = 0.5216): 1091.34 ± 0.14 kg/m3
mass density ([1]; 328.15 K, m1 = 0.8153): 1103.75 ± 0.15 kg/m3

CC#N [acetonitrile]
refractive index ([2]; 298.15 K): 1.3411 ± 0.0004
refractive index ([2]; 308.15 K): 1.3365 ± 0.0004
refractive index ([2]; 318.15 K): 1.3327 ± 0.0004
refractive index ([2]; 328.15 K): 1.3259 ± 0.0004
viscosity ([3]; 298.15 K): 0.3431 ± 0.0047 mPa·s
mass density ([3]; 298.15 K): 776.59 ± 0.13 kg/m3
viscosity ([3]; 308.15 K): 0.3171 ± 0.0046 mPa·s
mass density ([3]; 308.15 K): 765.76 ± 0.14 kg/m3
viscosity ([3]; 318.15 K): 0.2918 ± 0.0046 mPa·s
mass density ([3]; 318.15 K): 754.67 ± 0.14 kg/m3
viscosity ([3]; 328.15 K): 0.268 ± 0.0045 mPa·s
mass density ([3]; 328.15 K): 743.6 ± 0.14 kg/m3

C[S+](C)[O-] [dimethyl sulfoxide]
refractive index ([2]; 298.15 K): 1.4737 ± 0.0004
refractive index ([2]; 308.15 K): 1.4701 ± 0.0004
refractive index ([2]; 318.15 K): 1.4668 ± 0.0004
refractive index ([2]; 328.15 K): 1.462 ± 0.0004
viscosity ([3]; 298.15 K): 1.979 ± 0.013 mPa·s
mass density ([3]; 298.15 K): 1095.27 ± 0.13 kg/m3
viscosity ([3]; 308.15 K): 1.622 ± 0.01 mPa·s
mass density ([3]; 308.15 K): 1085.18 ± 0.13 kg/m3
viscosity ([3]; 318.15 K): 1.381 ± 0.0092 mPa·s
mass density ([3]; 318.15 K): 1075.24 ± 0.12 kg/m3
viscosity ([3]; 328.15 K): 1.207 ± 0.0083 mPa·s
mass density ([3]; 328.15 K): 1065.16 ± 0.12 kg/m3

CN(C)C=O [dimethylformamide]
refractive index ([2]; 298.15 K): 1.4267 ± 0.0004
refractive index ([2]; 308.15 K): 1.4225 ± 0.0004
refractive index ([2]; 318.15 K): 1.418 ± 0.0004
refractive index ([2]; 328.15 K): 1.4144 ± 0.0004
viscosity ([3]; 298.15 K): 0.8605 ± 0.0067 mPa·s
mass density ([3]; 298.15 K): 943.8 ± 0.1 kg/m3
viscosity ([3]; 308.15 K): 0.7712 ± 0.0063 mPa·s
mass density ([3]; 308.15 K): 934.45 ± 0.11 kg/m3
viscosity ([3]; 318.15 K): 0.6975 ± 0.006 mPa·s
mass density ([3]; 318.15 K): 924.75 ± 0.11 kg/m3
viscosity ([3]; 328.15 K): 0.6374 ± 0.0058 mPa·s
mass density ([3]; 328.15 K): 914.9 ± 0.11 kg/m3

CO [methanol]
refractive index ([2]; 298.15 K): 1.3272 ± 0.0004
refractive index ([2]; 308.15 K): 1.3232 ± 0.0004
refractive index ([2]; 318.15 K): 1.3185 ± 0.0004
refractive index ([2]; 328.15 K): 1.3158 ± 0.0004
mass density ([3]; 298.15 K): 786.53 ± 0.13 kg/m3
mass density ([3]; 308.15 K): 777.09 ± 0.13 kg/m3
viscosity ([3]; 318.15 K): 0.5962 ± 0.0055 mPa·s
mass density ([3]; 318.15 K): 767.48 ± 0.13 kg/m3
viscosity ([3]; 328.15 K): 0.4792 ± 0.0051 mPa·s
mass density ([3]; 328.15 K): 757.75 ± 0.14 kg/m3

O [water]
refractive index ([2]; 298.15 K): 1.3325 ± 0.0004
refractive index ([2]; 308.15 K): 1.3313 ± 0.0004
refractive index ([2]; 318.15 K): 1.3298 ± 0.0004
refractive index ([2]; 328.15 K): 1.3282 ± 0.0004
viscosity ([3]; 298.15 K): 0.8949 ± 0.0066 mPa·s
viscosity ([3]; 308.15 K): 0.7207 ± 0.0059 mPa·s
viscosity ([3]; 318.15 K): 0.5962 ± 0.0055 mPa·s
viscosity ([3]; 328.15 K): 0.5042 ± 0.0052 mPa·s
mass density ([3]; 328.15 K): 985.62 ± 0.05 kg/m3
